# ChEMBL document CHEMBL4229414, “Design and synthesis of bridged piperidine and piperazine isosteres” (Bioorg Med Chem Lett, 2018)
# What was measured:
# [1] = target: D(2) dopamine receptor (Homo sapiens) (UniProt P14416); assay: Antagonist activity at human D2L receptor expressed in CHOK1 cells assessed as inhibition of dopamine-induced calcium flux at 10 uM by fluorescence assay relative to control; format: functional, cell-based
# [2] = Passive permeability in human Caco2 cells; format: ADME, cell-based; conditions: caco-2
# [3] = Stability in rat microsomes; format: ADME, Microsome; note: time not given here
# [4] = target: T1, hERG (KCNH2) (Homo sapiens, UniProt Q12809); assay: (§1) Inhibition of human ERG at 3 uM relative to control
# T1 sequence (Q12809 whole entry): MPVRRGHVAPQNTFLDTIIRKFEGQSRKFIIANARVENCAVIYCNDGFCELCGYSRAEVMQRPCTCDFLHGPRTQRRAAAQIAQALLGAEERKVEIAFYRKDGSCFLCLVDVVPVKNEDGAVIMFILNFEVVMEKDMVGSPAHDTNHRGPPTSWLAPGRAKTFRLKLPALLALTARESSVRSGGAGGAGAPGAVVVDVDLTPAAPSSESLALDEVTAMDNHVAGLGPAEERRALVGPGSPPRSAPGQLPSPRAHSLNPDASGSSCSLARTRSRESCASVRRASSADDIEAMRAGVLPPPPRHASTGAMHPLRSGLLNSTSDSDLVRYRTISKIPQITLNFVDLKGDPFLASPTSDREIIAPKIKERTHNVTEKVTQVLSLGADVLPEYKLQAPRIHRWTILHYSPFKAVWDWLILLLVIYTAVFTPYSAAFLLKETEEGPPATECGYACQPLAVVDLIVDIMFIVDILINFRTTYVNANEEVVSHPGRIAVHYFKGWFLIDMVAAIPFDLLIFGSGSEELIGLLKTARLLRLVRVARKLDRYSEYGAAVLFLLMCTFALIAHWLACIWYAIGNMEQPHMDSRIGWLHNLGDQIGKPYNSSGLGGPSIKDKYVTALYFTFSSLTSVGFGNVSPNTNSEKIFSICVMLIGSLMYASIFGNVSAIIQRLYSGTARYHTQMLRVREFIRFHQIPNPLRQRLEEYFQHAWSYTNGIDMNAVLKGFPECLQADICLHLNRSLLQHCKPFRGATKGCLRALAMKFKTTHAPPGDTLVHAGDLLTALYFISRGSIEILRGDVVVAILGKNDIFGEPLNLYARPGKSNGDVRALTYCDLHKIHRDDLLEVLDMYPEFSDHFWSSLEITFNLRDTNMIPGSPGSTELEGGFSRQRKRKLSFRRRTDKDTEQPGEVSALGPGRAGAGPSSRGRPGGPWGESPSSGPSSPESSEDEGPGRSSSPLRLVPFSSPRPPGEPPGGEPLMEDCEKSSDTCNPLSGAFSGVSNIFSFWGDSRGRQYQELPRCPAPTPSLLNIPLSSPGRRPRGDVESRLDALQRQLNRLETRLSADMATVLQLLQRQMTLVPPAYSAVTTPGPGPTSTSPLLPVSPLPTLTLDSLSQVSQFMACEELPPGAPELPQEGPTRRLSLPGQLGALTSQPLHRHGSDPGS
# [5] = target: D(2) dopamine receptor (Homo sapiens) (UniProt P14416); assay: Antagonist activity at human D2L receptor expressed in CHOK1 cells assessed as inhibition of dopamine-induced calcium flux at 0.1 uM by fluorescence assay relative to control; format: functional, cell-based
# [6] = target: D(2) dopamine receptor (Homo sapiens) (UniProt P14416); assay: Agonist activity at human D2L receptor expressed in CHOK1 cells assessed as inhibition of receptor response at 10 uM by calcium flux assay relative to control; format: functional, cell-based
# [7] = Stability in mouse microsomes; format: ADME, Microsome; note: time not given here
# [8] = target: D(2) dopamine receptor (Homo sapiens) (UniProt P14416); assay: Agonist activity at human D2L receptor expressed in CHOK1 cells assessed as inhibition of receptor response at 0.1 uM by calcium flux assay relative to control; format: functional, cell-based
# [9] = target: T1, hERG (KCNH2); assay: (§2) Inhibition of human ERG at 1 uM relative to control
# [10] = Stability in human microsomes; format: ADME, Microsome; note: time not given here
# [11] = Efflux ratio of permeability in human Caco2 cells; format: ADME, cell-based; conditions: caco-2
# [12] = organism: Homo sapiens; assay: Agonist activity at recombinant human D4.4 expressed in CHOK1 cells assessed as inhibition of receptor response at 10 uM by HTRF based cAMP assay relative to control; format: cell-based
# [13] = organism: Homo sapiens; assay: Agonist activity at recombinant human D4.4 expressed in CHOK1 cells assessed as inhibition of receptor response at 0.1 uM by HTRF based cAMP assay relative to control; format: cell-based
# [14] = target: T1, hERG (KCNH2); assay: (§3) Inhibition of human ERG at 10 uM relative to control
# [15] = target: T2, Voltage-gated inwardly rectifying potassium channel KCNH2 (Homo sapiens, UniProt Q12809); assay: as §2; conditions: 1 µM
# T2 sequence (Q12809 whole entry): as above
# [16] = target: T2, Voltage-gated inwardly rectifying potassium channel KCNH2; assay: as §3; conditions: 10 µM
# [17] = target: T2, Voltage-gated inwardly rectifying potassium channel KCNH2; assay: as §1; conditions: 3 µM
# D(2) dopamine receptor (Homo sapiens), sequence (P14416 whole entry): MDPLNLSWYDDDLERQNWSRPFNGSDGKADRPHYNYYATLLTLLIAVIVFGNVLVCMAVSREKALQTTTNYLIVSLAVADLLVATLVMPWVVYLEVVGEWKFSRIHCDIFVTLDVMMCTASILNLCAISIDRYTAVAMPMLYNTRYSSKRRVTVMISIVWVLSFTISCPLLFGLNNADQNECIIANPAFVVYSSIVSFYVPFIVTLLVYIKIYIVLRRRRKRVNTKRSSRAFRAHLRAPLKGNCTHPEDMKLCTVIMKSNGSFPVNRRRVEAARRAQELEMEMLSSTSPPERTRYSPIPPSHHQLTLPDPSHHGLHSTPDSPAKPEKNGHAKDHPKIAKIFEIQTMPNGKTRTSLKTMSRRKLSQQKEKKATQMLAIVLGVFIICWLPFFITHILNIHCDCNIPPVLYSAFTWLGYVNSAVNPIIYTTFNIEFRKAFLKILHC
SMILES,inhibition [1] [%],permeability [2] [%],Stability [3] [%],inhibition at 3 µM [4] [%],inhibition [5] [%],inhibition [6] [%],Stability [7] [%],inhibition [8] [%],inhibition at 1 µM [9] [%],Stability [10] [%],efflux ratio [11],inhibition [12] [%],inhibition [13] [%],inhibition at 10 µM [14] [%],inhibition (INH) [15] [%],inhibition (INH) [16] [%],inhibition (INH) [17] [%]
CCCN1[C@H]2CC[C@H]1CC(c1ccc(OC)cc1)C2 (relative stereo),9,100,2,78,0,40,5,-1,58,8,3,21,9,93,,,
CCCN1[C@@H]2COC[C@H]1CN(c1ccccc1OC)C2,5,100,4,2,9,19,18,3,2,70,0.9,3,3,12,,,
CCCN1[C@H]2COC[C@H]1CC(c1ccccc1OC)C2 (relative stereo; 20),,100,1,34,,,2,,,42,2.3,,,,17,64,
CCCN1[C@H]2CC[C@H]1CC(c1ccc(OC)c(OC)c1)C2 (relative stereo),11,99,4,62,8,20,21,6,36,50,3.4,17,-1,85,,,
CCCN1C[C@H]2OC[C@@H]1C[C@]2(O)c1ccccc1OC,16,100,15,5,12,3,55,6,4,100,0.6,-6,6,14,,,
CCCN1C[C@H]2OC[C@@H]1C[C@H]2c1ccccc1OC,13,100,3,9,-6,7,9,4,3,41,0.8,21,5,22,,,
CCCN1CCC(c2ccccc2OC)CC1,14,100,4,5.5,-7,99,30,52,2,86,1,12,9,14,,,
CCCN1[C@H]2CC[C@H]1CC(c1ccccc1OC)C2 (relative stereo; 8a) [listing 1 of 2 here],29,,,,14,35,,2,,,,,-3,,,,
CCCN1[C@H]2CC[C@H]1CC(c1ccccc1OC)C2 (relative stereo; 8a) [listing 2 of 2 here],,100,2,,,,3,,,25,2.9,,,74,22,,46
CCCN1[C@H]2CC[C@H]1CC(O)(c1ccccc1OC)C2 (relative stereo),,100,12,19,,-8,54,,7,100,1.2,,,46,,,
